The text below walks through data of patent US20040087651A1, “Monoterpene as a chemopreventive agent for regression of mammalian nervous system cell tumors, use of monoterpene for causing regression and inhibition of nervous system cell tumors, and method for administration of monoterpene perillyl alcohol” (priority 2001, published 2004).

In one data set the test system is A 172 cells. Put plainly: Studies of cell morphology. In kind it is cell-based, human. The note with it: POH 0,3%. How it is done:
(§1) Studies of cell morphology:_A 172 and U 87 cells were cultivated in plates of 6 wells. After 24 hours, perillyl alcohol was added to a final concentration of 0.3% (v/v). Monolayers of cells treated with POH were photographed by an optic microscope inverted NIKON TMS, to register morphological changes induced by the treatment. All studies of cell morphology were performed at least three times to ensure accurate interpretation.

The subject of another data set is U 87 cells. The data set can be described thus: Studies of cell morphology. Format: cell-based, human. The note with it: POH 0,3%. How it is done:
as §1

The test system of a further data set is human glioma A 172 cells. Put plainly: Cellular Proliferation Assay (MTT). In kind it is cell-based. How it is done:
(§2) a—Cell Culture: Human malignant gliomas U 87 and A 172 cells were obtained from the American Type Culture Collection (ATCC), and grown as monolayers on the at 37° C., in Dulbecco's Modified Eagle Medium supplemented with 0.2 mM nonessential amino acids, 10% (v/v) fetal calf serum, penicillin (100 UI/mL), streptomycin ([…]) and amphotericin B (Fungizone, […]). For subcultures, confluent monolayers were gently washed with Dulbecco's phosphate—buffered saline (PBS, pH 7.2), and after a short exposure to trypsin, the cells were transferred to a new bottle containing complete growth media.
(§3) Cellular Proliferation Assay: the target cells (human glioma U 87 and A 172) were cultivated in plates of 96 wells at a concentration of 5.0×10^5 cells by well. After the cellular adherence the cells were placed in multiple POH dilutions, in triplicates, having as positive control cells growing with detergent Tween 20. The negative control were cells growing without any additive. Concentrations varying from 30%, 3%, 0.03%, 0.003%, 0.0003% (v/v) were applied and after 24 hours of incubation 1.0 mg of hydrogen acceptor 3 (4,5 dimethylthiazol-2yi)-2-5 diphenyltetrazolium bromide (MTT) solution was added in each well, and the culture was incubated for additional 3 hours. […] An ELISA reader with 490 nm filter was used to read the results.

For a further data set, the system named is human glioma U 87 cells. Put plainly: Cellular Proliferation Assay (MTT). Format: cell-based. How it is done:
as §2, §3

Another data set concerns A 172 glial cells. The data set can be described thus: Chorioallantoic Membrane (CAM) Assay, anti-metastatic activity. In kind it is in vivo, human. The following applies: A 172 cells exposed to POH 0,3% to 0,03% for 2 hours prior to inoculation in chick embryo chorioallantoic membrane. How it is done: (§4) After determination of cell concentration applying a Neubauer Chamber, 2×10^6 cells were incubated for 2 hours at 37° C., in D-MEM medium containing concentrations varying from […] or 3% of perillyl alcohol (Sigma), prior to inoculation on CAM.
(§5) b—Chorioallantoic Membrane (CAM) Assay: seven days old fertilized specific pathogen free chick eggs were used in this study. By transillumination in a dark chamber, the egg air camera was marked on the eggshell. The following procedures were done under aseptic conditions, in the laminar chamber. An opening was made in the upper part and another in the lateral part of the eggshell, and the air camera was mechanically displaced to the upper side by applying negative pressure at the lateral opening. Both openings were sealed. In the upper part of the egg, a small window was made. On the upper CAM, the cells were inoculated, with a sterile pipette. Eggs 1, 2 and 3 received 2×10^6 cells previously treated with POH (0.03, 0.3 and 3%, respectively) diluted D-MEM medium. Egg 4 received 2×10^6 untreated cells in D-MEM medium. Egg 5 was used as negative control (no cells inoculated). The windows were sealed and the eggs were kept at 37° C. and 60% humidity, in the horizontal position, without agitation, for seven days
(§6) Opening of the eggs. […]

A further data set has as its system U 87 glial cells. The data set is described as above. Format: in vivo, human. The following applies: U 87 cells exposed to POH 0,3% to 0,03% for 2 hours prior to inoculation in chick embryo chorioallantoic membrane. How it is done: as §4, §5, §6
In data set [1] the test system is rats. The note with it: perillyl alcohol diet; cited from earlier work.
The subject of another data set is glial cell C6. Put plainly: Effect on glial cell C6 growth. In kind it is cell-based, rats. The following applies: various concentrations (FIG. 2).
In another data set the test system is glial cell lines. The data set can be described thus: Inhibition of protein expression in glial cell lines. Format: cell-based. The note with it: POH treatment in glial cell lines (FIG. 10: A 172).
Data set [2] deals with rats. The following applies: rat, in vivo.

In the case of `C=C(C)[C@@H]1CC=C(CO)CC1` [perillyl alcohol, p-metha, 1,7-diene-6-ol or 4-isopropenyl-cyclohexanecarbinol], the cell morphology result with A 172 cells was “changes in morphology, indicative of cellular differentiation”; with U 87 cells it was “changes in morphology, indicative of cellular differentiation”. In addition, the “proliferation of glioma cell lines” value is reported as “inhibits the proliferation” with human glioma A 172 cells (POH 30%, 3%, 0,3% and 0,03%, preliminary in vitro studies); “inhibits the proliferation” with human glioma U 87 cells (U 87, POH 30%, 3%, 0,3% and 0,03%, preliminary in vitro studies). The cell growth result is reported as “significantly inhibited cell growth in a dose dependent manner” in the data set with human glioma A 172 cells (various concentrations (FIG. 4)); “significantly inhibited cell growth in a dose dependent manner” with human glioma U 87 cells (U87, various concentrations (FIG. 3)); “significantly inhibited cell growth in a dose dependent manner” in the data set on glial cell C6. Besides, the anti-metastatic activity result with A 172 glial cells and in the data set with U 87 glial cells was “anti metastatic activity” throughout. For the same compound, in the data set on rats [1], the maximum dose tolerated is listed as 2,5%. The protein expression result with glial cell lines is given as “inhibition protein expression”. The “toxicity in tissues of lung, liver, and brain” value in the data set with rats [2] was “no toxicity”.
